Assays:
[1] = system: A2780 ovarian cells; experiment: A2780 Ovarian Cell Proliferation Assay in Lipid Reduced Medium, with Palmitate (control); format: cell-based; conditions: Homo sapiens, A2780; lipid reduced medium, 25 μM palmitate, 96 h, MTT; read-out: Proliferation A2780 with Palmitate pIC50 (converted)
In short: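 A2780 cells were seeded in RPMI1640 with 10% FCS, then switched next day to medium with 10% lipid-reduced serum. Compound was added with final 25 μM palmitate, 0.2% fatty-acid-free BSA and 0.2% DMSO, and incubated 96 h at 37 °C. Read-out was MTT absorbance at 544 nm; pIC50 = −log(IC50) from curve fit.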

[2] = molecular target: T1, hFASN enzyme (full length) (Homo sapiens, UniProt P49327); experiment: Fatty Acid Synthase (FASN) Inhibition Scintillation Proximity Assay; format: biochemical; conditions: for IC50: mean where tested more than once, ~ = standard error of pIC50 larger than 0.5; for inhibition at 10 µM: read-out: FASN % Effect @1E−05M
T1 construct: 10 μL hFASN enzyme (full length, 300 ng, purified in house); made in house
T1 sequence (P49327 whole entry): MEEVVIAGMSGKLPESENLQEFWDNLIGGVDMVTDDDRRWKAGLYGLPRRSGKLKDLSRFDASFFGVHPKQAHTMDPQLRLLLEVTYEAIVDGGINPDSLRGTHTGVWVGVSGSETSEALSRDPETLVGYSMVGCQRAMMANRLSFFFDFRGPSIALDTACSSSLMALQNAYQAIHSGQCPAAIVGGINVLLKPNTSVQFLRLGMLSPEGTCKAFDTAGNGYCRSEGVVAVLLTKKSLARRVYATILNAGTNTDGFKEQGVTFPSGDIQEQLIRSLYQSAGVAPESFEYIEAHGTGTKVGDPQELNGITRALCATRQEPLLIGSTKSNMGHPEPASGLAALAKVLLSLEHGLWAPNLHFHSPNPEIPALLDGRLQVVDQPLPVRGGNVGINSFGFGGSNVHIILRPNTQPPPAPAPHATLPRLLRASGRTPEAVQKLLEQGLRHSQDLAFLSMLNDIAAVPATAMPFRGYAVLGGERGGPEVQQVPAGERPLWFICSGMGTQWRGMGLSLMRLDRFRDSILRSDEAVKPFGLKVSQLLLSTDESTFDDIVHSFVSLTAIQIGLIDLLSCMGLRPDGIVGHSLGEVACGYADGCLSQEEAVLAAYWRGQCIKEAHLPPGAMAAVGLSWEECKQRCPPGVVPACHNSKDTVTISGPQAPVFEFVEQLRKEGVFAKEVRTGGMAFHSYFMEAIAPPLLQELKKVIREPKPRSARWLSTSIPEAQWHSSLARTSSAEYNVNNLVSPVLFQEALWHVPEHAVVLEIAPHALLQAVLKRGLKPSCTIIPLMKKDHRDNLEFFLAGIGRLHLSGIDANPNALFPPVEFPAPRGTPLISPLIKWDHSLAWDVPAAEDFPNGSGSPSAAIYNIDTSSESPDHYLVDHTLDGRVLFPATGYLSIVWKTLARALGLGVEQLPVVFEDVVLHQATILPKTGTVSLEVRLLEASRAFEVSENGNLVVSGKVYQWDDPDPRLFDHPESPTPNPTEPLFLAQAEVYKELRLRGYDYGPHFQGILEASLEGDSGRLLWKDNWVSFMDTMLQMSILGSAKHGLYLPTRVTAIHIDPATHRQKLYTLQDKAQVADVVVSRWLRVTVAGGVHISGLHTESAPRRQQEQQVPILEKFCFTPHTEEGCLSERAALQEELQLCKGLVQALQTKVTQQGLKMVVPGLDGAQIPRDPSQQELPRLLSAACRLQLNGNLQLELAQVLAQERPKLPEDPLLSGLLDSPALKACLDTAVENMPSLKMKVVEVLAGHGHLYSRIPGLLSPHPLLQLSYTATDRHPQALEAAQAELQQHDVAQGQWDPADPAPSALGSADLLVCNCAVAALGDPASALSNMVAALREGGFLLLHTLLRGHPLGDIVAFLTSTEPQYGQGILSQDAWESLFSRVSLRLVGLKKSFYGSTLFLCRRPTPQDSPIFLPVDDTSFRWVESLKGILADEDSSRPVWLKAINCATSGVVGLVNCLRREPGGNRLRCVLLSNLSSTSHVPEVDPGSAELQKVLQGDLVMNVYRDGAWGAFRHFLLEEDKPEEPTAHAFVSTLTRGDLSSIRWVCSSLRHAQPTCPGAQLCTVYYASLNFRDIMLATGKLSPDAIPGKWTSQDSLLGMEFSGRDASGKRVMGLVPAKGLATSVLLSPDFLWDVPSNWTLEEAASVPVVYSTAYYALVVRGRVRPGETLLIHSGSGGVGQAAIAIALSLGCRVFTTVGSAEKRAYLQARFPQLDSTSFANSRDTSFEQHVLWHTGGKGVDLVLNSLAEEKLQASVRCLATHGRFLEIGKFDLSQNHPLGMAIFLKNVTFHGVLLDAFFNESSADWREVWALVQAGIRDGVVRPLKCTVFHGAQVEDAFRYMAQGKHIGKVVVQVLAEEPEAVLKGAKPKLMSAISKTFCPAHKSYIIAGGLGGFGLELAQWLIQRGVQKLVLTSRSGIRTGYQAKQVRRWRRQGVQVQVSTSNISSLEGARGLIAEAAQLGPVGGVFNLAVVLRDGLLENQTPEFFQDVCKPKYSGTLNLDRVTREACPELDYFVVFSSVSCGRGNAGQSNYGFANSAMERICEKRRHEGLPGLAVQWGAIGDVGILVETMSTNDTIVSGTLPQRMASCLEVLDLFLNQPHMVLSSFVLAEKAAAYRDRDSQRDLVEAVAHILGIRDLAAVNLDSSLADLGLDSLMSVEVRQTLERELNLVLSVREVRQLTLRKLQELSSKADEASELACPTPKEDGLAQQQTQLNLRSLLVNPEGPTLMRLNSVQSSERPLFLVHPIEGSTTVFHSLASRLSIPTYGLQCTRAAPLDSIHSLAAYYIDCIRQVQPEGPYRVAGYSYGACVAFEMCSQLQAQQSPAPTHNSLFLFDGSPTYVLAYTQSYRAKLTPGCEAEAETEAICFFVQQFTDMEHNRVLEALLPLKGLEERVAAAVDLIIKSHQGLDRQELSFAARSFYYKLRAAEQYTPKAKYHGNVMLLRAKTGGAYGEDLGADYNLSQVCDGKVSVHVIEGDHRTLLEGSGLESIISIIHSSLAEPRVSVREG
In short: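 Purified full-length human FASN (300 ng) incubated 60 min at room temperature with NADPH, [3H]-acetyl-CoA and malonyl-CoA in 100 mM KH2PO4 pH 7.5, 1 mM DTT; compound at 30 μM to 0.01 μM. [3H]-palmitate captured by SPA imaging beads; IC50 from 4-parameter fit, reported as pIC50.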

[3] = system: A2780 ovarian cells; experiment: A2780 Ovarian Cell Proliferation Assay in Lipid Reduced Medium, without Palmitate; format: cell-based; conditions: Homo sapiens, A2780; lipid reduced medium, without palmitate, 96 h, MTT; read-out: Proliferation A2780 w/o Palmitate pIC50 (converted)
In short: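 A2780 cells were seeded in 10% FCS medium and switched next day to 10% lipid-reduced serum without palmitate. Compounds at 0.01–30 μM were added with 0.2% DMSO, 0.2% fatty-acid-free BSA and 0.25% ethanol final. After 96 h, MTT absorbance at 544 nm was normalized to plate controls, and IC50/pIC50 came from a 4-parameter logistic fit.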

[4] = molecular target: T2, FASN Keto-reductase Domain (Homo sapiens, UniProt P49327); experiment: Fatty Acid Synthase Keto-Reductase Domain (FASN KR) Inhibition; format: biochemical; conditions: mean where tested more than once; read-out: FASN K-R Domain pIC50 (converted)
T2 construct: 10 μL hFASN enzyme (full length, 300 ng, purified in house) and 360 μM NADPH; made in house
T2 sequence (P49327 whole entry, the tested form may be a part): as the sequence (P49327 whole entry) above
In short: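 Full-length human FASN (300 ng) in 100 mM KH2PO4 pH 7.5 with 360 μM NADPH and 180 mM ethyl acetoacetate (stock); A340 decrease read over 20 min at room temperature.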

Cc1ccc(C(=O)N2CCC(c3ccc(-c4cnn(C)c4)cc3)CC2)cc1NC(=O)c1ccc(N(C)C(C)C)nc1 [Compound 92, 6-(Isopropyl(methyl)amino)-N-(2-methyl-5-(4-(4-(1-methyl-1H-pyrazol-4-yl)phenyl)piperidine-1-carbonyl)phenyl)nicotinamide]
IC50 [1]: 6030 nM
IC50 [2]: 16.2 nM
inhibition at 10 µM [2]: 100%
IC50 [3]: 9.12 nM
IC50 [4]: 30.9 nM

COc1ccc(C(=O)Nc2cc(C(=O)N3CCC(c4ccc(-c5cnn(C)c5)cc4)CC3)ccc2C)cc1 [Compound 93, 4-methoxy-N-(2-methyl-5-(4-(4-(1-methyl-1H-pyrazol-4-yl)phenyl)piperidine-1-carbonyl)phenyl)benzamide]
IC50 [1]: > 10000 nM
IC50 [2]: 17.4 nM
inhibition at 10 µM [2]: 100%
IC50 [3]: 95.5 nM
IC50 [4]: 29.5 nM

COc1cccc(C(=O)Nc2cc(C(=O)N3CCC(c4ccc(-c5cnn(C)c5)cc4)CC3)ccc2C)c1 [Compound 94, 3-methoxy-N-(2-methyl-5-(4-(4-(1-methyl-1H-pyrazol-4-yl)phenyl)piperidine-1-carbonyl)phenyl)benzamide]
IC50 [1]: 7590 nM
IC50 [2]: 20.4 nM
inhibition at 10 µM [2]: 100%
IC50 [3]: 148 nM
IC50 [4]: 83.2 nM

Cc1ccc(C(=O)N2CCC(c3ccc(-c4cnn(C)c4)cc3)CC2)cc1NC(=O)c1cccc(Cl)c1 [Compound 95, 3-chloro-N-(2-methyl-5-(4-(4-(1-methyl-1H-pyrazol-4-yl)phenyl)piperidine-1-carbonyl)phenyl)benzamide]
IC50 [1]: 3470 nM
IC50 [2]: 26.3 nM
inhibition at 10 µM [2]: 105%
IC50 [3]: 263 nM
IC50 [4]: 151 nM

Cc1ccc(C(=O)N2CCC(c3ccc(-c4cnn(C)c4)cc3)CC2)cc1NC(=O)c1ccccc1Cl [Compound 96, 2-chloro-N-(2-methyl-5-(4-(4-(1-methyl-1H-pyrazol-4-yl)phenyl)piperidine-1-carbonyl)phenyl)benzamide]
IC50 [1]: > 10000 nM
IC50 [2]: 31.6 nM
inhibition at 10 µM [2]: 103%
IC50 [3]: 145 nM
IC50 [4]: 155 nM

Cc1ccc(C(=O)N2CC(c3ccc(-c4cnn(C)c4)cc3)C2)cc1NC(=O)c1cccc(C(F)(F)F)n1 [Compound 97, N-(2-methyl-5-(3-(4-(1-methyl-1H-pyrazol-4-yl)phenyl)azetidine-1-carbonyl)phenyl)-6-(trifluoromethyl)picolinamide]
IC50 [1]: 6030 nM
IC50 [2]: 170 nM
inhibition at 10 µM [2]: 89%
IC50 [3]: 501 nM
IC50 [4]: 324 nM

Cc1cc(C(=O)Nc2cc(C(=O)N3CCC(c4ccc(-c5cnn(C)c5)cc4)CC3)ccc2C)ccn1 [Compound 98, 2-methyl-N-(2-methyl-5-(4-(4-(1-methyl-1H-pyrazol-4-yl)phenyl)piperidine-1-carbonyl)phenyl)isonicotinamide]
IC50 [1]: 1200 nM
IC50 [2]: 30.2 nM
inhibition at 10 µM [2]: 102%
IC50 [3]: 46.8 nM
IC50 [4]: 91.2 nM

Cc1ccc(C(=O)N2CCC(c3ccc(-c4cnn(C)c4)cc3)CC2)cc1NC(=O)c1sccc1Cl [Compound 99, 3-chloro-N-(2-methyl-5-(4-(4-(1-methyl-1H-pyrazol-4-yl)phenyl)piperidine-1-carbonyl)phenyl)thiophene-2-carboxamide]
IC50 [1]: 6310 nM
IC50 [2]: 107 nM
inhibition at 10 µM [2]: 92%
IC50 [3]: 389 nM
IC50 [4]: 295 nM

Cc1ccc(C(=O)N2CCC(c3ccc(-c4cnn(C)c4)cc3)CC2)cc1NC(=O)c1cccnc1Cl [Compound 101, 2-Chloro-N-(2-methyl-5-(4-(4-(1-methyl-1H-pyrazol-4-yl)phenyl)piperidine-1-carbonyl)phenyl)nicotinamide]
IC50 [1]: > 10000 nM
IC50 [2]: 47.9 nM
inhibition at 10 µM [2]: 105%
IC50 [3]: 91.2 nM
IC50 [4]: 155 nM

Cc1ccc(C(=O)N2CCC(c3ccc(-c4cnn(C)c4)cc3)CC2)cc1NC(=O)c1ccc(Cl)nc1 [Compound 102, 6-Chloro-N-(2-methyl-5-(4-(4-(1-methyl-1H-pyrazol-4-yl)phenyl)piperidine-1-carbonyl)phenyl)nicotinamide]
IC50 [1]: > 10000 nM
IC50 [2]: 18.6 nM
inhibition at 10 µM [2]: 105%
IC50 [3]: 36.3 nM
IC50 [4]: 38 nM

COc1cc(C(=O)Nc2cc(C(=O)N3CCC(c4ccc(-c5cnn(C)c5)cc4)CC3)ccc2C)cc(Cl)n1 [Compound 103, 2-Chloro-6-methoxy-N-(2-methyl-5-(4-(4-(1-methyl-1H-pyrazol-4-yl)phenyl)piperidine-1-carbonyl)phenyl)isonicotinamide]
IC50 [1]: 4570 nM
IC50 [2]: 75.9 nM
inhibition at 10 µM [2]: 95%
IC50 [3]: 141 nM
IC50 [4]: 148 nM

Cc1ccc(C(=O)N2CCC(c3ccc(-c4cnn(C)c4)cc3)CC2)cc1NC(=O)C1CCOCC1 [Compound 104, N-(2-methyl-5-(4-(4-(1-methyl-1H-pyrazol-4-yl)phenyl)piperidine-1-carbonyl)phenyl)tetrahydro-2H-pyran-4-carboxamide]
IC50 [1]: > 10000 nM
IC50 [2]: 42.7 nM
inhibition at 10 µM [2]: 104%
IC50 [3]: 70.8 nM
IC50 [4]: 87.1 nM

COc1ccccc1C(=O)Nc1cc(C(=O)N2CCC(c3ccc(-c4cnn(C)c4)cc3)CC2)ccc1C [Compound 105, 2-methoxy-N-(2-methyl-5-(4-(4-(1-methyl-1H-pyrazol-4-yl)phenyl)piperidine-1-carbonyl)phenyl)benzamide]
IC50 [1]: 3020 nM
IC50 [2]: 309 nM
inhibition at 10 µM [2]: 86%
IC50 [3]: 955 nM
IC50 [4]: 617 nM

Cc1ccc(C(=O)N2CC(c3ccc(-c4cnn(C)c4)cc3)C2)cc1NC(=O)c1ccc(N2CCCC2)nc1 [Compound 106, N-(2-methyl-5-(3-(4-(1-methyl-1H-pyrazol-4-yl)phenyl)azetidine-1-carbonyl)phenyl)-6-(pyrrolidin-1-yl)nicotinamide]
IC50 [1]: > 15100 nM
IC50 [2]: 10.7 nM
inhibition at 10 µM [2]: 113%
IC50 [3]: 79.4 nM
IC50 [4]: 24.5 nM

CC(C)Nc1ccc(C(=O)Nc2cc(C(=O)N3CC(c4ccc(-c5ccnn5C)cc4)C3)ccc2Cl)cn1 [Compound 108, N-(2-chloro-5-(3-(4-(1-methyl-1H-pyrazol-5-yl)phenyl)azetidine-1-carbonyl)phenyl)-6-(isopropylamino)nicotinamide]
IC50 [1]: ~407 nM
IC50 [2]: 36.3 nM
inhibition at 10 µM [2]: 103%
IC50 [3]: 93.3 nM
IC50 [4]: 60.3 nM

Cc1ccc(C(=O)N2CC(c3ccc(-c4cnn(C)c4)cc3)C2)cc1NC(=O)c1ccc(NC2CCC2)nc1 [Compound 109, 6-(cyclobutylamino)-N-(2-methyl-5-(3-(4-(1-methyl-1H-pyrazol-4-yl)phenyl)azetidine-1-carbonyl)phenyl)nicotinamide]
IC50 [1]: > 15100 nM
IC50 [2]: 14.5 nM
inhibition at 10 µM [2]: 119%
IC50 [3]: ~23.4 nM
IC50 [4]: 31.6 nM

COc1ccc(C(=O)Nc2cc(C(=O)N3CCC(c4ccc(-c5cnn(C)c5)cc4)CC3)ccc2C)cn1 [Compound 113, 6-methoxy-N-(2-methyl-5-(4-(4-(1-methyl-1H-pyrazol-4-yl)phenyl)piperidine-1-carbonyl)phenyl)nicotinamide]
IC50 [1]: > 10000 nM
IC50 [2]: 28.8 nM
inhibition at 10 µM [2]: 104%
IC50 [3]: 67.6 nM
IC50 [4]: 47.9 nM
